These results are taken from patent publication US9216977B2 (The University of North Carolina at Chapel Hill, priority 2009, dated 2015).

One data set relates to KB. The data set can be described thus: in vitro screen against human tumor cell line KB (nasopharyngeal), GI50. Type of data set: cell-based. The note with it: for GI50: read-out: GI50 KB.
In a further data set the test system is A549. The data set can be described thus: in vitro screen against human tumor cell line A549 (lung), GI50. Type of data set: cell-based.
Another data set deals with KBvin. The data set can be described thus: in vitro screen against KBvin cell line, GI50. Type of data set: cell-based.
A further data set deals with DU145. The data set can be described thus: in vitro screen against human tumor cell line DU-145 (prostate), GI50. Type of data set: cell-based.
The subject of a further data set is HCT-8. The data set can be described thus: in vitro screen against human tumor cell line HCT-8 (colon), GI50. It is filed as cell-based.
[1] abbreviates: Example 2, Table 2, 12-aza-antofines.
The mark [2] stands for this setting: Example 2, Table 2, 12-aza-antofines, read-out: GI50 A549.
Setting [3] is: Example 2, Table 2, 12-aza-antofines, read-out: GI50 DU145.
The mark [4] stands for this setting: Homo sapiens, KB, Example 3, Table 1.
Setting [5] is: Homo sapiens, A549, Example 3, Table 1, read-out: GI50 A549.
[6] abbreviates: Homo sapiens, KBVIN, Example 3, Table 1.
The mark [7] stands for this setting: Homo sapiens, DU-145, Example 3, Table 1, read-out: GI50 DU145.
[8] abbreviates: Homo sapiens, KB, Example 2, Table 2, 12-aza-antofines.
[9] abbreviates: Homo sapiens, A549, Example 2, Table 2, 12-aza-antofines, read-out: GI50 A549.
[10] abbreviates: Homo sapiens, DU-145, Example 2, Table 2, 12-aza-antofines, read-out: GI50 DU145.
Where [11] appears, read: Homo sapiens, HCT-8, Example 2, Table 2, 12-aza-antofines, read-out: GI50 HCT-8.
[12] abbreviates: Homo sapiens, A549, read-out: GI50 A549.
Setting [13] is: Homo sapiens, DU-145, read-out: GI50 DU145.
Setting [14] is: Homo sapiens, HCT-8, read-out: GI50 HCT-8.
[15] abbreviates: Homo sapiens, KB, Example 2, Table 3, 13-aza-cryptopleurines.
Where [16] appears, read: Homo sapiens, A549, Example 2, Table 3, 13-aza-cryptopleurines, read-out: GI50 A549.
The mark [17] stands for this setting: Homo sapiens, DU-145, Example 2, Table 3, 13-aza-cryptopleurines, read-out: GI50 DU145.
Where [18] appears, read: Homo sapiens, HCT-8, Example 2, Table 3, 13-aza-cryptopleurines, read-out: GI50 HCT-8.

Like-named read-outs stand apart in the source and are kept apart here.

Usually melting point stands for the temperature of the solid-liquid transition. `COc1ccc2c3c(c4cc(OC)c(OC)cc4c2c1)C[C@H]1CN(CC(C)C)CN1C3` had a melting point of 93 to 95 °C.
By GI50 is commonly meant the concentration at which growth is held to half of that of the control. For `COc1ccc2c3c(c4cc(OC)c(OC)cc4c2c1)CC1CN(C)CN1C3` (stereo in doubt) [Compound 3k, (R)-12-aza-12N-dimethylamino-antofine], the concentration for 50% growth inhibition (GI50) with KB (setting [1]) came out at 2.38 µM; with A549 (setting [2]), 4.15 µM; with KBvin (Homo sapiens, Table 2, cells marked (KBvin) in the HCT-8 column), 11 µM; with DU145 (setting [3]), 6.01 µM.
`COc1ccc2c3c(c4cc(OC)c(OC)cc4c2c1)C[C@H]1CN(Cc2ccccc2)CN1C3` [3a] yielded a melting point of 113 to 115 °C.
`COc1ccc2c3c(c4cc(OC)c(OC)cc4c2c1)C[C@H]1[C@@H](O)CCN1C3` [Compound 3a]: the GI50 in the data set on KB (setting [4]) stood at 1.83 µM; in the data set on A549 (setting [5]), 2.81 µM; with KBvin (setting [6]), 3.42 µM; with DU145 (setting [7]) it was 3.2 µM.
With `COc1ccc2c3c(c4cc(OC)c(OC)cc4c2c1)C[C@H]1[C@H](O)CCN1C3` [Compound 3b], the GI50 came to 0.5 µM in the data set on KB (setting [4]), 0.27 µM with A549 (setting [5]), 0.64 µM in the data set on KBvin (setting [6]) and 0.85 µM in the data set on DU145 (setting [7]).
As to `CCCN1C[C@@H]2Cc3c(c4ccc(OC)cc4c4cc(OC)c(OC)cc34)CN2C1` [Compound 3c, (S)-12-aza-12N-propyl-antofine], the melting point lay in the range of 155 to 157 °C. In addition, the GI50 with KB (setting [8]) stood at 6.64 µM. Also, the GI50 in the data set on A549 (setting [9]) was 3.94 µM. The GI50 in the data set on DU145 (setting [10]) amounted to 7.38 µM. Besides, the GI50 in the data set on HCT-8 (setting [11]) was found to be 2.71 µM.
As to `COc1ccc2c3c(c4cc(OC)c(OC)cc4c2c1)C[C@H]1CN(CCc2ccccc2)CN1C3` [Compound 3d, (S)-12-aza-12N-phenylethylenyl-antofine], the melting point fell in the range of 85 to 87 °C. Moreover, the GI50 in the data set on KB (Homo sapiens, KB) came out at 10 µM. The GI50 in the data set with A549 (setting [12]) stood at 6.62 µM. Besides, in the data set with DU145 (setting [13]), the concentration for 50% growth inhibition (GI50) was 10.2 µM. The GI50 in the data set with HCT-8 (setting [14]) worked out at 7.47 µM.
On to `COc1ccc2c3c(c4cc(OC)c(OC)cc4c2c1)C[C@H]1CN(CCO)CN1C3` [Compound 3e, (S)-12-aza-12N-hydroxylethyl-antofine], for which the melting point lay within 210 to 212 °C. The GI50 in the data set with KB (setting [8]) was 7.83 µM. In the data set on A549 (setting [9]), the GI50 is 4.41 µM. Moreover, in the data set with DU145 (setting [10]), the GI50 is 6.36 µM. Also, the GI50 in the data set on HCT-8 (setting [11]) came to 10.8 µM.
For `COc1ccc2c3c(c4cc(OC)c(OC)cc4c2c1)C[C@H]1CN(C2CC2)CN1C3` [Compound 3g, (S)-12-aza-12N-cyclopropyl-antofine], in that order: 204 to 206 °C, 2.71 µM, 1.8 µM, 3.7 µM and 1.85 µM.
In the case of `COc1ccc2c3c(c4cc(OC)c(OC)cc4c2c1)C[C@H]1CN(C)CN1C3` [Compound 3i, (S)-12-aza-12N-dimethylamino-antofine], the GI50 in the data set with KB (setting [1]) was 2.31 µM; with A549 (setting [2]), 1.67 µM; with DU145 (setting [3]) it was 2.26 µM; in the data set with HCT-8 (Example 2, Table 2, 12-aza-antofines, read-out: GI50 HCT-8), 2.01 µM.
In the case of `COC1=C[C@@H]2Cc3c(c4ccc(OC)cc4c4cc(OC)c(OC)cc34)CN2C1` [Compound 7, (S)-12-methoxy-antofine-12-ene], the GI50 with KB was 12.00 µM; with A549 (read-out: GI50 A549) it was 5.97 µM; in the data set on KBvin, 2.64 µM; in the data set on DU145 (read-out: GI50 DU145), 10.3 µM; in the data set with HCT-8 (read-out: GI50 HCT-8) it was 3.56 µM.
For `COc1ccc2c3c(c4cc(OC)c(OC)cc4c2c1)C[C@H]1CNCCN1C3.Cl.Cl` [Compound 8a, (S)-13-aza-cryptopleurine dihydrochloride], the GI50 in the data set with KB turned out to be 1.79 µM; in the data set on A549 (read-out: GI50 A549) it was 1.73 µM; in the data set with DU145 (read-out: GI50 DU145) it was 2.08 µM; with HCT-8 (read-out: GI50 HCT-8) it was 1.62 µM.
`CCN1CCN2Cc3c(c4cc(OC)c(OC)cc4c4cc(OC)ccc34)C[C@H]2C1` [Compound 8b, (S)-13-aza-13N-ethyl-cryptopleurine] registered a melting point of 83 to 85 °C. The concentration for 50% growth inhibition (GI50) in the data set on KB (setting [15]) came to 8.24 µM. Moreover, in the data set with A549 (setting [16]), the GI50 was 7.13 µM. For the same compound, in the data set with DU145 (setting [17]), the GI50 came to 10.5 µM. In the data set with HCT-8 (setting [18]), the 50% growth inhibitory concentration (GI50) came to 9.45 µM.
For `COC(=O)N1CCN2Cc3c(c4cc(OC)c(OC)cc4c4cc(OC)ccc34)C[C@H]2C1` [Compound 8c, (S)-13-aza-13N-methoxycarbonyl-cryptopleurine], in that order: 99 to 101 °C, 11.3 µM, 10.9 µM, 12.2 µM and 12.1 µM.
In turn, `COc1ccc2c3c(c4cc(OC)c(OC)cc4c2c1)C[C@H]1CN(C(C)=O)CCN1C3` [Compound 8d, (S)-13-aza-13N-acetyl-cryptopleurine] had a melting point of 123 to 125 °C. Further, in the data set on KB (Homo sapiens, KB), the GI50 worked out at 15.5 µM. Besides, the GI50 with A549 (setting [12]) is 11.7 µM. Further, the GI50 in the data set with DU145 (setting [13]) turned out to be 11.9 µM. Besides, the GI50 in the data set with HCT-8 (setting [14]) stood at 13.8 µM.
Regarding `COc1ccc2c3c(c4cc(OC)c(OC)cc4c2c1)C[C@H]1CN(S(C)(=O)=O)CCN1C3` [Compound 8e, (S)-13-aza-13N-methylsulfonyl-cryptopleurine], the GI50 in the data set with KB was 17.52 µM; with A549 (read-out: GI50 A549), 14.5 µM; in the data set with DU145 (read-out: GI50 DU145), 17 µM; in the data set with HCT-8 (read-out: GI50 HCT-8) it was 17.8 µM.
For `COc1ccc2c(c1)c1c(c3cc(OC)c(OC)cc32)C[C@H]2CCN(C3CC3)CN2C1` [Compound 11e, (S)-12-aza-12N-cyclopropyl-cryptopleurine], the GI50 in the data set on KB was 11.47 µM; in the data set with A549 (read-out: GI50 A549), 4.3 µM; in the data set with DU145 (read-out: GI50 DU145) it was 14.3 µM; in the data set with HCT-8 (read-out: GI50 HCT-8) it was 5.73 µM.
Take `COc1ccc2c3c(c4cc(OC)c(OC)cc4c2c1)C[C@H]1CCN(C)CN1C3` [Compound 11f, (S)-12-aza-12N-dimethylamino-cryptopleurine]: the GI50 with KB (Homo sapiens, KB, Example 2, Table 4, 12-aza-cryptopleurines) came to 3.08 µM; in the data set with A549 (Homo sapiens, A549, Example 2, Table 4, 12-aza-cryptopleurines, read-out: GI50 A549), 1.78 µM; with DU145 (Homo sapiens, DU-145, Example 2, Table 4, 12-aza-cryptopleurines, read-out: GI50 DU145), 2.97 µM; with HCT-8 (Homo sapiens, HCT-8, Example 2, Table 4, 12-aza-cryptopleurines, read-out: GI50 HCT-8), 2.37 µM.
Regarding `COc1ccc2c3c(c4cc(OC)c(OC)cc4c2c1)C[C@H]1C[C@H](O)[C@@H](O)CN1C3` [Compound 24a, (12S,13S,14aS)-12,13-dihydroxyl-cryptopleurine], the GI50 with KB (setting [4]) worked out at 0.84 µM; with A549 (setting [5]) it was 0.55 µM; with KBvin (setting [6]), 2.17 µM; with DU145 (setting [7]) it was 0.6 µM.
On the same counts, the results for `COc1ccc2c3c(c4cc(OC)c(OC)cc4c2c1)C[C@H]1C[C@@H](O)[C@H](O)CN1C3` [Compound 24b, (12R,13R,14aS)-12,13-dihydroxyl-cryptopleurine] are 17.5 µM, 14.5 µM, 12.6 µM and 17.1 µM.
For `CC[C@@]1(O)CCN2Cc3c(c4cc(OC)c(OC)cc4c4cc(OC)ccc34)C[C@H]2C1` [Compound 25, (13R,14aS)-13-ethyl-13-hydroxyl-cryptopleurine], in that order: 0.92 µM, 0.99 µM, 0.87 µM and 0.77 µM.
On to `COc1ccc2c3c(c4cc(OC)c(OC)cc4c2c1)C[C@H]1C[C@@H](OC)CCN1C3` [Compound 26a, (13S,14aS)-13-methoxy-cryptopleurine], for which the GI50 with KB (setting [4]) came out at 5.24 µM; in the data set on A549 (setting [5]), 7.11 µM; in the data set on KBvin (setting [6]) it was 3.69 µM; with DU145 (setting [7]) it was 3.57 µM.
On the same counts, the results for `COc1ccc2c3c(c4cc(OC)c(OC)cc4c2c1)C[C@H]1C[C@H](OC)CCN1C3` [Compound 26b, (13R,14aS)-13-methoxy-cryptopleurine] are 0.1 µM, 0.025 µM, 0.066 µM and 0.056 µM.
In the case of `COc1ccc2c3c(c4cc(OC)c(OC)cc4c2c1)C[C@H]1CCCN1C3` [R-antofine, reference compound], in the data set with KB (Example 1, Table 1), the “KB GI50” value is 0.036 µM. In addition, the GI50 amounted to 0.036 µM in the data set on KB (setting [4]); 0.022 µM with A549 (Homo sapiens, A549, Example 1, Table 1, read-out: A549 GI50); 0.025 µM in the data set with KBvin (setting [6]).
Take “(14R,14aS)-11-oxo-14-hydroxyl-cryptopleurine [Compound 21b]”: the GI50 with KB was 0.30 µM; in the data set on A549 (read-out: GI50 A549), 0.069 µM; with KBvin it was 0.12 µM; with DU145 (read-out: GI50 DU145), 0.2 µM.
With “(14S,14aS)-11-oxo-14-hydroxyl-cryptopleurine [Compound 21a]”, the GI50 turned out to be 0.025 µM in the data set with KB, 0.01 µM in the data set on A549 (read-out: GI50 A549), 0.025 µM in the data set with KBvin and 0.033 µM with DU145 (read-out: GI50 DU145).
For the compound “(S)-12-aza-12N-phenyl-cryptopleurine [Compound 11b]”, the GI50 in the data set on KB is greater than 40 µM; in the data set on A549 (read-out: GI50 A549) it was greater than 40 µM; in the data set on DU145 (read-out: GI50 DU145), greater than 40 µM; with HCT-8 (read-out: GI50 HCT-8), 28.4 µM.
